Data from patent US20080176787A1, “Parathyroid hormone analogues and methods of use” (priority 2005, published 2008).
Positions of bridges follow the written chain, without caps; N, C: chain ends. Residues, ends and D or L forms follow the SMILES beside them.

How the values were obtained:
[1] = test system: gonad-intact cynomolgus monkeys; assay: 52-week (12 months) daily subcutaneous study in gonad-intact young cynomolgus monkeys: bone mass, histomorphometry, % cortical porosity; type: in vivo; settings: for % Cortical Porosity: Tibial Mid-Diaphysis, 12 months
Experimental: The peptide [Leu^27]cyclo[Glu^22-Lys^26]-hPTH-(1-31)-NH2 Ostabolin-C™ was administered daily by subcutaneous injection to gonad-intact cynomolgus monkeys (4/sex/group) at dose levels of 0, 2, 10 and 25 μg/kg for 52 weeks. Monkeys were 30 to 40 months of age (2.3-3.5 kg) at treatment start. Tibiae were retained for histomorphometry following labeling with calcein green 15 and 5 days prior to euthanasia. Bone mass, as measured by DXA (dual-energy x-ray absorptiometry) and QCT (quantitative computed tomography), was increased at the lumbar spine, femur and tibia. Changes in vertebral BMD (bone mineral density) translated into significant increases in bone strength. […] Tibial cancellous bone volume increased by more than 50% in all the peptide [Leu^27]cyclo[Glu^22-Lys^26]-hPTH-(1-31)-NH2 treated groups compared to controls and in the tibial mid-diaphysis, increases in cortical width and relative cortical area with concurrent decreases in medullary area were observed. […] Increases in indices of bone formation were associated with decreases in indices of bone resorption (decreased bone resorption markers, decreased osteoclast surface area, minimal cortical porosity), consistent with the uncoupling of these events. This combination of anabolic and anti-catabolic actions may have significant therapeutic value in the treatment of osteoporosis.
(§1) Comparative data regarding increase in cortical bone porosity in monkey subjects using Ostabolin C at a variety of doses and using the prior art PTHs 1-34 is shown below.

[2] = test system: Gonad intact young Cynomolgus monkeys; assay: 6-week daily study in gonad intact young cynomolgus monkeys: % cortical porosity; type: in vivo; settings: Tibial Mid-Diaphysis, 6 weeks
Text: as §1

Toxicity, 12 mth monkey = type: in vivo; settings: in vivo; Ostabolin C, 12 mth monkey
Text: (§2) A NoAEL was not established for the monkey. […] Ostabolin-C™ is at least 4-fold safer than PTH-(1-34).

monkey = assay: Toxicity, 12 mth monkey; type: in vivo
Text: as §2

[3] = Ostabolin-C Inhalation Powder (OCIP) Phase I pharmacokinetics; type: in vivo; settings: female, human, blood
Experimental: A Phase I clinical study was undertaken using Ostabolin-C™ Inhalation Powder (OCIP) to establish an MTD in post-menopausal women, to compare its PK profile with Phase II sub-cutaneous doses, and to evaluate biological activity with cAMP and biomarkers of bone turnover. The OCIP was administered using the Nektar T-326 dry powder inhaler (DPI), which is well-accepted by osteoporosis patients in focus groups. An ascending dose tolerance was used. Each cohort was randomized and included 6 active patients and 2 placebo patients. The patients were post menopausal healthy females that were older than 40 years of age and had no known history of osteoporosis or other bone disease.
The primary measurements were taken at clinical laboratories where patient surveys were taken and the patient could describe any adverse events. Additionally the patients' vital signs were taken with Holter monitoring of EKGs and Spirometry. Pharmacokinetics, such as Ostabolin-C blood levels, PK parameters after a single dose and after 7 days of daily dosing were also measured. Pharmacodynamics were also monitored for changes in bone markers including P1NP, Osteocalcin, NTx, CTx, and urine cyclic AMP.

rats = assay: Rat oncogenicity study, 104 weeks subcutaneous; type: in vivo; settings: 0.5, 5, 30, and 50 μg/kg/day SC
Experimental: Prior art PTHs cause osteosarcomas in animals if administered over a course of two years. The PTH peptides of the present invention, including Ostabolin-C™ and PTH 1-30, are administered subcutaneously to rats for 104 weeks at doses of 0.5, 5, 30, and 50 μg/kg/day. The test article is administered subcutaneously. […] This difference could be due to the different amino acids sequences and/or to the different signalling pathways activated by the PTH molecules.

[4] = test system: post-menopausal women with low bone mineral density; assay: Phase II clinical study of subcutaneous Ostabolin-C in post-menopausal women with low BMD (BMD, bone markers, serum calcium, side effects); settings: for Sitting HR / Headache / HyperCa > 2.65 / HyperCa > 2.75 / N + H / Nausea: 4 months; for Headache / HyperCa > 2.65 / HyperCa > 2.75 / N + H / Nausea: unit assumed
Text: A four month Phase II clinical study was undertaken to investigate the safety, tolerability and efficacy of Ostabolin-C™ in post-menopausal women with low bone mineral density (BMD). […] The clinical protocol is a 16-week phase II randomized, double-blind, placebo-controlled, parallel group, dose finding study to investigate the safety, tolerability and efficacy of Ostabolin-C™ in post-menopausal women with low bone mineral density (BMD). In this study, 261 patients underwent four months of daily dosing of placebo and four active groups. The active groups included daily administration of Ostabolin-C™ in doses of 7.5, 15, 30, and 45 μg. Ostabolin-C™ is formulated as a clear, colorless liquid provided in pre-filled syringes and injected subcutaneously (SC). Subjects self-administer SC 0.1 mL injections of their assigned dose of Ostabolin-C™ 7.5, 15, 30, and 45 μg or placebo daily for 16 weeks in rotating quadrants of the abdomen. The subjects were post-menopausal women (for at least 5 years) with moderate osteoporosis.
The key endpoints for the study include change in mean BMD at the lumbar spine, as assessed by dual energy x-ray absorptiometry (DEXA), and measured by change from the Baseline visit. The Baseline visit is the first visit of the patient, before undergoing any treatment. Secondary efficacy endpoints include the following, as measured by change from Baseline visit:
DEXA: Bone formation and resorption markers: • Mean femoral neck BMD • Serum osteocalcin • Mean trochanter BMD • Serum amino terminal pro-peptide of type 1 pro-collagen (P1NP) • Mean total hip BMD • Mean radial BMD (distal and midshaft) • Bone specific alkaline phosphatase (BSAP) • Bone mineral content (BMC) • Serum C-telopeptide (CTx) • Bone area • Serum N-telopeptide (NTx)

CC[C@H](C)[C@H](NC(=O)[C@H](CCC(=O)O)NC(=O)[C@H](CO)NC(=O)[C@@H](NC(=O)[C@@H](N)CO)C(C)C)C(=O)N[C@@H](CCC(N)=O)C(=O)N[C@@H](CC(C)C)C(=O)N[C@@H](CCSC)C(=O)N[C@@H](Cc1c[nH]cn1)C(=O)N[C@@H](CC(N)=O)C(=O)N[C@@H](CC(C)C)C(=O)NCC(=O)N[C@@H](CCCCN)C(=O)N[C@@H](Cc1c[nH]cn1)C(=O)N[C@@H](CC(C)C)C(=O)N[C@@H](CC(N)=O)C(=O)N[C@@H](CO)C(=O)N[C@@H](CCSC)C(=O)N[C@@H](CCC(=O)O)C(=O)N[C@@H](CCCN=C(N)N)C(=O)N[C@H](C(=O)N[C@H]1CCC(=O)NCCCC[C@@H](C(=O)N[C@@H](CC(C)C)C(=O)N[C@@H](CC(C)C)C(=O)N[C@@H](CCC(N)=O)C(=O)N[C@@H](CC(=O)O)C(=O)N[C@H](C(N)=O)C(C)C)NC(=O)[C@H](CCCN=C(N)N)NC(=O)[C@H](CC(C)C)NC(=O)[C@H](Cc2c[nH]c3ccccc23)NC1=O)C(C)C [Ostabolin-C, [Leu^27]cyclo[Glu^22-Lys^26]-PTH-(1-31)-NH2] (H-SVSEIQLMHNLGKHLNSMERVEWLRKLLQDV-NH2; lactam 22-26)
% Cortical Porosity ([1]; F, 2 μg/kg/day): 2.5 ± 0.41%
% Cortical Porosity ([1]; F, 10 μg/kg/day): 2.6 ± 0.85%
% Cortical Porosity ([1]; F, 25 μg/kg/day): 3.2 ± 0.87%
% Cortical Porosity ([1]; M, 2 μg/kg/day): 4.2 ± 0.29%
% Cortical Porosity ([1]; M, 10 μg/kg/day): 5.1 ± 1.08%
% Cortical Porosity ([1]; M, 25 μg/kg/day): 8.0 ± 5.54%
cortical porosity ([1]; two highest dose levels, 52 weeks): Only minor increases
% Cortical Porosity ([2]; F, 10 μg/kg/day): 3.2 ± 0.97%
% Cortical Porosity ([2]; F, 25 μg/kg/day): 4.0 ± 1.25%
% Cortical Porosity ([2]; F, 80 μg/kg/day): 10.6 ± 0.35%
% Cortical Porosity ([2]; M, 10 μg/kg/day): 3.7 ± 0.70%
% Cortical Porosity ([2]; M, 25 μg/kg/day): 5.8 ± 1.82%
% Cortical Porosity ([2]; M, 80 μg/kg/day): 16.4 ± 7.14 %
NOAEL at 12 mth (Toxicity, 12 mth monkey): 2 µg/kg
fold less nephrotoxic than PTH-(1-34) (monkey; 12 mth monkey): >4-fold less
hypercalaemic (DIFFERENCES column) (monkey; 12 mth monkey): Ostabolin-C not
Bone hypertrophy (monkey; Ostabolin C 0, 2, 10, 25 μg/kg, 12 mth monkey): hypertrophy all
fold safer than PTH-(1-34) (monkey; pre-clinical toxicity): at least 4 fold
nephrotoxicity (monkey; pre-clinical toxicity): nephrotoxic only in monkeys
Cmax ([3]; subcutaneous, Day 1, normalized to SC 45 μg): 0.0747 ng/mL
AUC(0-t) ([3]; subcutaneous, Day 1, normalized to SC 45 μg, read-out: AUC(0-4)): 0.0412 ng·h/mL
Tmax ([3]; Day 1, SC, averaged for all subjects): 13.2 min
half-life ([3]; Day 1, SC, averaged for all subjects, read-out: T½ (converted)): 37.2 min
incidence of osteosarcomas compared to prior art PTH peptides (rats): lower incidences of osteosarcomas
Mean [Ca] ([4]; 30 μg (4 months)): 0.040 mmol/L
hypercalcemia seen at least once, % of group ([4]; 30 μg doses (placebo 5%)): 5%
Sitting HR ([4]; 30 ug): 2.4
Headache ([4]; 30 ug): 19.6%
HyperCa > 2.65 ([4]; 30 ug): 4.5%
HyperCa > 2.75 ([4]; 30 ug): 2.3%
N + H ([4]; 30 ug): 7.8%
Nausea ([4]; 30 ug): 25.5%
Mean [Ca] ([4]; 45 μg (4 months)): 0.070 mmol/L
Sitting HR ([4]; 45 ug): 4.0
Headache ([4]; 45 ug): 21.8%
HyperCa > 2.65 ([4]; 45 ug): 27.3%
HyperCa > 2.75 ([4]; 45 ug): 9.1%
N + H ([4]; 45 ug): 12.7%
Nausea ([4]; 45 ug): 29.1%
percent of abnormal serum calcium ([4]; doses up to and including 30 μg (FIG. 14)): no notable difference from placebo
